For one experiment, the target named is cyclophilin A (Homo sapiens, UniProt P62937). Description: Cyclophilin A TR-FRET competitive binding assay. To be noted: competition with CsA-Cy5 for His-tagged CypA, two-hour incubation. The protocol: Cyclophilin A TR-FRET Competitive Binding Assay
Inhibitor potency was measured using a competitive binding assay with a time-resolved fluorescence resonance energy transfer (TR-FRET) readout. […] An IC50 value was calculated using a four-parameter logistic fit.
In general terms: Time-resolved FRET reads energy transfer from a long-lived donor to a nearby acceptor.

For experiment [1], the system named is Huh-7 HCV replicon cells (1b replicon). Description: anti-HCV activity in Huh-7 cell line harboring a HCV replicon (luciferase readout). Format: cell-based. Particulars: for EC50: inhibition of viral replication, Huh-7 HCV replicon cells, 3 days, read-out: EC50; for inhibition at 1 µM: Huh-7, read-out: Replicon 1b % inhibition at 1 μM, 1b replicon, 1 μM compound. In general terms: Replicon systems follow genome replication, usually without infectious particles.

The values that follow come from patent publication US9642889B2, “Macrocyclic inhibitors of Flaviviridae viruses” (Selcia Limited, priority 2012, dated 2017).

Molecules are shown by their SMILES. Read-outs that look alike come from different tables or passages of the source.

Chain of cyclophilin A (P62937 whole entry, species assumed): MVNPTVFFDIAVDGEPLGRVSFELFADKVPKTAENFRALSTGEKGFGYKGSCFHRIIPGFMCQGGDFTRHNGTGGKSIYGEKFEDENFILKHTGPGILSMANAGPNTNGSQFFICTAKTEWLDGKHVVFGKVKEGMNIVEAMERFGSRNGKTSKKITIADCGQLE

As for `CC(C)[C@@H]1OC(=O)C2(/C=C/c3ccc4ccc(nc4c3)[C@@H](C)NC(=O)[C@@H]3CCCN(N3)C(=O)[C@H](C)NC1=O)COC(CF)(CF)OC2` [Compound 107], the IC50 at cyclophilin A is less than 100 nM. In addition, in experiment [1] (Hepatitis C virus, Huh-7, 72 h), the EC50 is less than 1000 nM. Further, in experiment [1] (Hepatitis C virus), the inhibition at 1 µM stood at 100%.
The corresponding values for `CC(C)[C@@H]1NS(=O)(=O)C/C=C/c2cc3cc(ccc3cn2)[C@@H](C)OC(=O)[C@@H]2CCCN(N2)C(=O)[C@H](C)NC1=O` [Compound 21] are 101 to 1000 nM, less than 1000 nM and 71%.
The corresponding values for `CC(C)[C@@H]1OC(=O)C2(/C=C/c3ccc4ccc(nc4c3)[C@@H](C)NC(=O)[C@@H]3CCCN(N3)C(=O)[C@H](C)NC1=O)CN(S(C)(=O)=O)CCO2` (stereo partly drawn) [Compound 97] are less than 100 nM, less than 1000 nM and 96%.
The corresponding values for `CCC(=O)O[C@H]1CC[C@]2(/C=C/c3ccc4ccc(nc4c3)[C@@H](C)NC(=O)[C@@H]3CCCN(N3)C(=O)[C@H](C)NC(=O)[C@H](C(C)C)OC2=O)CC1` [Compound 111] are less than 100 nM, less than 1000 nM and 99%.
On cyclophilin A, `CC(C)[C@@H]1OC(=O)C(CF)(CF)/C=C/c2ccc3ccc(nc3c2)[C@@H](C)NC(=O)[C@@H]2CCCN(N2)C(=O)[C@H](C)NC1=O` [Compound 99] registered an IC50 of less than 100 nM. For the same molecule, the EC50 in experiment [1] (Hepatitis C virus, Huh-7, 72 h) was less than 1000 nM. Also, the inhibition at 1 µM in experiment [1] (Hepatitis C virus) is 100%.
The corresponding values for `CCCC(=O)O[C@H]1CC[C@]2(/C=C/c3ccc4ccc(nc4c3)[C@@H](C)NC(=O)[C@@H]3CCCN(N3)C(=O)[C@H](C)NC(=O)[C@H](C(C)C)OC2=O)CC1` [Compound 82] are less than 100 nM, less than 1000 nM and 99%.
The corresponding values for `CC(C)[C@@H]1OC(=O)C2(/C=C/c3ccc4ccc(nc4c3)[C@@H](C)NC(=O)[C@@H]3CCCN(N3)C(=O)[C@H](C)NC1=O)COC(=O)OC2` [Compound 98] are less than 100 nM, less than 1000 nM and 90%.
As for `CCC[C@@H]1CCCc2cc3cc(ccc3cn2)[C@@H](C)NC(=O)[C@@H]2CCCN(N2)C(=O)[C@H](C)NC(=O)[C@H](C(C)C)OC1=O` [Compound 9], on cyclophilin A, the IC50 is less than 100 nM. Further, the EC50 in experiment [1] (Hepatitis C virus, Huh-7, 72 h) was less than 1000 nM. Besides, the inhibition at 1 µM in experiment [1] (Hepatitis C virus) was 100%.
The corresponding values for `C[C@@H]1NC(=O)[C@H]([C@@H](C)O)OC(=O)C(C)(C)/C=C/c2ccc3ccc(nc3c2)[C@@H](C)NC(=O)[C@@H]2CCCN(N2)C1=O` [Compound 87] are less than 100 nM, less than 1000 nM and 61%.
`C[C@@H]1NC(=O)[C@H](C2CC2)OC(=O)C2(/C=C/c3ccc4ccc(nc4c3)[C@@H](C)NC(=O)[C@@H]3CCCN(N3)C1=O)CCC(O)C2` (stereo partly drawn) [Compound 102]: the IC50 at cyclophilin A was less than 100 nM. The EC50 in experiment [1] (Hepatitis C virus, Huh-7, 72 h) is 1100 to 10000 nM. In addition, in experiment [1] (Hepatitis C virus), the inhibition at 1 µM worked out at 13%.
The corresponding values for `C[C@@H]1NC(=O)[C@@H](C2CC2)OC(=O)C(C)(C)/C=C/c2ccc3ccc(nc3c2)[C@@H](C)NC(=O)[C@@H]2CCCN(N2)C1=O` [Compound 79] are 1000 to 10000 nM, 1100 to 10000 nM and 3%.
The corresponding values for `CC(C)[C@@H]1OC(=O)[C@@](C)(COC(F)F)/C=C/c2ccc3ccc(nc3c2)[C@@H](C)NC(=O)[C@@H]2CCCN(N2)C(=O)[C@H](C)NC1=O` [Compound 55] are less than 100 nM, less than 1000 nM and 100%.
The corresponding values for `CC(C)[C@@H]1OC(=O)C(C)(C)/C=C/c2ccc3ccc(nc3c2)[C@@H](C)N(C)C(=O)[C@@H]2CCCN(N2)C(=O)[C@H](CO)NC1=O` [Compound 41] are less than 100 nM, less than 1000 nM and 98%.
In turn, `C[C@@H]1NC(=O)[C@H](C2CC2)OC(=O)C2(/C=C/c3ccc4ccc(nc4c3)[C@@H](C)NC(=O)[C@@H]3CCCN(N3)C1=O)COCCOC2` [Compound 93] showed an IC50 at cyclophilin A of less than 100 nM. The EC50 in experiment [1] (Hepatitis C virus, Huh-7, 72 h) is less than 1000 nM. In addition, in experiment [1] (Hepatitis C virus), the inhibition at 1 µM was determined as 98%.
On cyclophilin A, `CC(C)[C@@H]1OC(=O)[C@]2(/C=C/c3ccc4ccc(nc4c3)[C@@H](C)N(C)C(=O)[C@@H]3CCCN(N3)C(=O)[C@H](C)NC1=O)CC[C@H](O)CC2` [Compound 42] gave an IC50 of less than 100 nM. Besides, the EC50 in experiment [1] (Hepatitis C virus, Huh-7, 72 h) is less than 1000 nM. The inhibition at 1 µM in experiment [1] (Hepatitis C virus) came to 96%.
The corresponding values for `CC([C@@H]1OC(=O)C(C)(C)/C=C/c2ccc3ccc(nc3c2)[C@@H](C)NC(=O)[C@@H]2CCCN(N2)C(=O)[C@H](C)NC1=O)C(F)(F)F` (stereo partly drawn) [Compound 71] are less than 100 nM, less than 1000 nM and 96%.
The corresponding values for `CC(C)[C@@H]1OC(=O)[C@@](C)(CO)CCc2ccc3ccc(nc3c2)[C@@H](C)NC(=O)[C@@H]2CCCN(N2)C(=O)[C@H](C)NC1=O` [Compound 30] are less than 100 nM, less than 1000 nM and 84%.
For the molecule `CCC[C@@H]1C/C=C/c2cc3cc(ccc3cn2)[C@@H](C)NC(=O)[C@@H]2CCCN(N2)C(=O)[C@H](C)NC(=O)[C@H](C(C)C)OC1=O` [Compound 4], the IC50 on cyclophilin A is less than 100 nM. The EC50 in experiment [1] (Hepatitis C virus, Huh-7, 72 h) was less than 1000 nM. Moreover, the inhibition at 1 µM in experiment [1] (Hepatitis C virus) was 100%.
`CC1NC(=O)C(C2CC2)OC(=O)C2(C=Cc3ccc4ccc(nc4c3)C(C)NC(=O)C3CCCN(N3)C1=O)CCC(O)C2` (single isomer, unassigned) [Compound 105] came in with an IC50 at cyclophilin A of 101 to 1000 nM. In addition, the “Replicon 1b % inhibition at 1 μM” value in experiment [1] (1b replicon, 1 μM compound, 1 µM) is on record as 2%. The EC50 in experiment [1] lay in the range of 1100 to 10000 nM.
`C[C@@H]1NC(=O)[C@H](C2CCCC2)OC(=O)C2(/C=C/c3ccc4ccc(nc4c3)[C@@H](C)NC(=O)[C@@H]3CCCN(N3)C1=O)COCOC2` [Compound 63]: on cyclophilin A, the IC50 was less than 100 nM. In addition, the EC50 in experiment [1] (Hepatitis C virus, Huh-7, 72 h) was less than 1000 nM. Also, the inhibition at 1 µM in experiment [1] (Hepatitis C virus) came out at 100%.
The corresponding values for `CC(CC[C@@H]1C/C=C/c2cc3cc(ccc3cn2)[C@@H](C)NC(=O)[C@@H]2CCCN(N2)C(=O)[C@H](C)NC(=O)[C@H](C(C)C)OC1=O)=NOCCN1CCOCC1` (mixture of isomers) [Compound 15] are less than 100 nM, less than 1000 nM and 98%.
On cyclophilin A, `CC(C)[C@@H]1NCCC/C=C/c2cc3cc(ccc3cn2)[C@@H](C)OC(=O)[C@@H]2CCCN(N2)C(=O)[C@H](C)NC1=O` [Compound 20] came in with an IC50 of 101 to 1000 nM. Also, in experiment [1] (Hepatitis C virus, Huh-7, 72 h), the EC50 was less than 1000 nM. Further, the inhibition at 1 µM in experiment [1] (Hepatitis C virus) is 88%.
The molecule `CC(C)[C@H]1C(=O)N[C@@H](C)C(=O)N2CCC[C@H](N2)C(=O)O[C@H](C)c2ccc3ccc(cc3n2)/C=C/C(C)(C)CN1C` [Compound 26] returned an IC50 at cyclophilin A of 101 to 1000 nM. The EC50 in experiment [1] (Hepatitis C virus, Huh-7, 72 h) was less than 1000 nM. Besides, in experiment [1] (Hepatitis C virus), the inhibition at 1 µM was 68%.
The corresponding values for `CC(C)[C@@H]1N[C@@H](C(F)(F)F)C(C)(C)/C=C/c2ccc3ccc(nc3c2)[C@@H](C)OC(=O)[C@@H]2CCCN(N2)C(=O)[C@H](C)NC1=O` [Compound 32] are 101 to 1000 nM, 1100 to 10000 nM and 56%.
Regarding `CC1/C=C/c2ccc3ccc(nc3c2)[C@@H](C)OC(=O)[C@@H]2CCCN(N2)C(=O)[C@H](C)NC(=O)[C@H](C(C)C)OC1` (single isomer, unassigned) [Compound 27], the IC50 on cyclophilin A was less than 100 nM. Further, the EC50 in experiment [1] (Hepatitis C virus, Huh-7, 72 h) is less than 1000 nM. For the same molecule, the inhibition at 1 µM in experiment [1] (Hepatitis C virus) worked out at 92%.

The term IC50 denotes the concentration needed to halve the response being measured. The low end stands for greater potency in that assay, the high end for weaker potency in that assay. For orientation: EC50 means the concentration at which the effect is half-maximal. A word on the inhibition: it is how much of the control response was suppressed.
